Source: patent US20230012570A1, “BICYCLIC COMPOUND USED AS SELECTIVE ANDROGEN RECEPTOR MODULATOR” (MEDSHINE DISCOVERY INC., priority 2019, published 2023)

Assays:
[1] = test system: muscle growth model of female rats; assay: In vivo pharmacodynamic study for muscle growth in female rats; settings: female SD rats, 10 mg/kg oral, QD × 37 days
Text: Experimental Embodiment 3: In Vivo Pharmacodynamic Study of the Compounds of the Present Disclosure for Muscle Growth in Female Rats
From 16 female SD rats, 12 were selected and randomly divided into 2 groups of 6 animals each according to their body weight, with 2 spare animals in each group; the vehicle was (5% Tween 80+90% polyethylene glycol 400+5% polyvinylpyrrolidone K30): 1% carboxymethyl cellulose=1:9 (v/v).
The rats were acclimatized in the ecological feeding box for 1 week at approximately 2 months of age, and after the acclimatization period, the rats were divided equally into 2 groups (n=6) according to body weight, and the vehicle and compound 3A were administered by gavage, once a day, for 5 weeks, at which time the animals were euthanized, and the tissues (muscle tissue: levator anal muscle, vaginal smooth muscle and gastrocnemius; gonad-related tissue: clitoris) were collected by necropsy and weighed.

CYP2D6 = target: T1, CYP2D6 (Homo sapiens, UniProt P10635); assay: Human liver microsomal CYP inhibition experiment, CYP2D6; type: in vitro ADME
T1 construct: Mixed human liver microsomes (HLM) were purchased from Corning Inc; tissue Corning Inc. or XenoTech, LLC. or other suppliers; host or cells: pooled human liver microsomes
T1 sequence (P10635 whole entry): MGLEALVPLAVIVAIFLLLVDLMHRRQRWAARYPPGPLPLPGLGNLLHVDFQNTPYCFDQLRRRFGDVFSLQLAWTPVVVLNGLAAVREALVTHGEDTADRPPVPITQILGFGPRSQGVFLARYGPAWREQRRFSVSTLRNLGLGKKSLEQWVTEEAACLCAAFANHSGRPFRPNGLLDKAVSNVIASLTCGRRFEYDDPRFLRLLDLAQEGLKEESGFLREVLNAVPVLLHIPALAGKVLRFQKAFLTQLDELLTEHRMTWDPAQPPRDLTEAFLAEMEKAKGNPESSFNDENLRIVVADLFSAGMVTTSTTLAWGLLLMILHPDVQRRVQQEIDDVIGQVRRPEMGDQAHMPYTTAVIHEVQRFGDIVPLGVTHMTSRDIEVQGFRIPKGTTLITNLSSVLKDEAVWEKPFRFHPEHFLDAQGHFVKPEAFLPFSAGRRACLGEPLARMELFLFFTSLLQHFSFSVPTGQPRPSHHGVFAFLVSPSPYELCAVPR
Experimental: Experiment Embodiment 4: Human Liver Microsomal CYP Inhibition Experiment
The inhibitory effects of the test compound 3A and VK5211 on the activities of human liver microsomal cytochrome P450 isozymes (CYP1A2, CYP2C9, CYP2C19, CYP2D6 and CYP3A4) were determined.
Mixed human liver microsomes (HLM) were purchased from Corning Inc. (Steuben, New York, USA) or XenoTech, LLC. (Lenexa, Kans., USA) or other suppliers, and were stored at a temperature below −60° C. before use.
First, the test compound (10.0 mM) was gradient diluted to prepare working solution (100×final concentration), and the concentrations of the working solution were: 5.00, 1.50, 0.500, 0.150, 0.0500, 0.0150, 0.00500 mM, and a working solution of each positive inhibitor of P450 isozymes (CYP1A2, CYP2C9, CYP2C19, CYP2D6, and CYP3A4) and a specific substrate mixture thereof (5 in 1) were prepared at the same time; human liver microsomes stored in a refrigerator at a temperature lower than −60° C. were put on ice to thaw, and when all the human liver microsomes were dissolved, the microsomes were diluted with potassium phosphate buffer (PB) to prepare a working solution of a certain concentration (0.253 mg/mL). […] The concentration of metabolites produced by the probe substrate in the sample was determined by liquid chromatography-tandem mass spectrometry (LC-MS/MS) method. […]

SMILES: N#Cc1ccc(N2CC3CC3C2C(O)C(F)(F)F)cc1Cl (single isomer, unassigned) [Compound 3A]
- abnormalities / tolerability of the animals [1]: no significant abnormalities
- increase of animal body weight compared with the vehicle group [1]: 20%
- increase of animal muscle weight compared with the vehicle group [1]: 34%
- increase of clitoral weight compared with the vehicle group (gonad-related tissue) [1]: 19%
- IC50 (CYP2D6): > 50 µM
